From patent publication EP3827825A1, “USE OF 3, 4-DIARYLPYRAZOLES AS ANTIBACTERIAL AGENTS” (Wageningen Universiteit, priority 2019, dated 2021)
≈ marks a conversion by molar mass, not a printed value. Where two headings read alike, the source gives them in different places.

Tests used:
[1] = system: E. coli JW5503; type: cell-based, Escherichia coli; details: unit assumed
Method: (§1) In short, a stock solution of 5 mg/mL of HKIs in DMSO was made. This stock was diluted to 50 µg/mL in broth in a 96 well plate. Dilutions were made (factor 2) directly in the plate with a multi-channel pipet. Bacteria cultured in suspension overnight were then added to the plate (except negative control) and the plate was incubated for 24 hours. After 24 hours the OD600 was measured using a spectrophotometer. A positive control (with bacteria, without HKI) was also measured on each plate. The MICs were not determined in duplo/triplicate in the same experiment, however, the MICs of several HKIs were measured in different experiments and no major differences (max. 1x dilution) were found in the MICs between the experiments.
(§2) Bacterial strains used in this study for antibacterial susceptibility testing (Table S2) were propagated using standard microbiological procedures. Minimal inhibitory concentrations (MICs) were determined following a standard double-dilution method (42), 73. MICs were recorded as the lowest concentration of the compound where no visible growth was observed. After plating the dilutions around the MIC or growing them in fresh MH media, minimal bactericidal concentration (MBC) was recorded as the lowest concentration of the compound at which no colonies were formed or no growth was observed, respectively. For M. marinum, MICs were determined in Middlebrook 7H9 broth (Difco) and MICs were determined after 3 days incubation at 30 °C.
(§3) Grow the bacterial colonies to be tested from single colonies on an agar plate in LB broth or suitable bacterial growth medium overnight at 37°C. Prepare a 5 mg/mL stock solution of compounds to be tested in DMSO. One 96-well plate per bacterial strain was prepared. First, put 50 uL of medium to each well. Add 48 µL of medium to all wells in row A. Pipet 2 µL of antimicrobial master stock into the top well (row A). Beware, the antimicrobial concentration will be diluted 2x after adding the bacterial culture. Total volume in each well will be 100 µL. In A11, pipet 2 µL of DMSO. Make a serial dilution from row A to row H, pipetting 50 µL from the previous row into the new one. Mix well by pipetting up and down. Discard the last 50 µL so that there is 50 µl in each well In a clean, new plastic pipetting cup, dilute the overnight bacterial culture 100 times. Add 100 µL of bacterial overnight culture to 9900 µL of medium. Mix the suspension well. Once the serial dilutions are complete for all antimicrobial compounds, add 50 µL of diluted overnight bacterial culture to each well (except column 12). Mix by pipetting or put the plate on the shaker. Per 2 plates, close with parafilm around the edges and place in the incubator overnight. After overnight culturing, measure bacterial growth on the SpectraMax. The lowest concentration where no growth is observed is the MIC. To determine the MIB pipette 5 µL from each well of the 96 well plate where now growth was observed on to an LB agar plate, without antimicrobial. Put the plates in the incubator to grow overnight. The minimal concentration where no growth can be seen on the agar plate is the MBC.

[2] = system: NRK-52E; assay: Cell toxicity, Alamar blue assay, 24 hours exposure; type: cell-based; details: for IC50: Rattus norvegicus
Method: (§4) Toxicity was primarily determined by measuring cytotoxicity with the Alamar blue assay. In short, cells (HEK293, NRK-52E and Caco-2) were plated in 96-well plates and cultured overnight. HKI compounds were diluted to concentrations ranging from 0.39 to 500 µg/mL in serum-free medium and added to the cells.
(§5) After exposure, cells were incubated for 24 hours. Experiments were mostly performed by single measurement. […] After 24 hours HKIs were removed from the cells and Alamar blue was added, incubated for 45 minutes and fluorescence was measured on a spectrophotometer. Alamar blue measures the conversion of blue, low fluorescent resazurin into high fluorescent pink resorufin. This conversion can only be made in viable mitochondria in viable cells and therefore this dye provides a measure for cytotoxicity.

[3] = system: HEK293; assay: as above; type: cell-based; details: for IC50: Homo sapiens
Method: as §4, §5

[4] = system: M. marinum; assay: Minimal inhibitory concentration (MIC), Middlebrook 7H9 broth, 3 days at 30 °C; type: cell-based, Mycobacterium marinum; details: unit assumed
Method: as §1, §2, §3

[5] = system: P. multocida; assay: Minimal inhibitory concentration (MIC), double-dilution in broth, OD600; type: cell-based, Pasteurella multocida; details: unit assumed
Method: as §1, §2, §3

[6] = system: E. faecium Van A; assay: as above; type: cell-based, Enterococcus faecium; details: unit assumed
Method: as §1, §2, §3

[7] = system: S. suis; assay: as above; type: cell-based, Streptococcus suis; details: unit assumed
Method: as §1, §2, §3

[8] = system: S. aureus Newman; assay: as above; type: cell-based, Staphylococcus aureus Newman; details: unit assumed
Method: In short, a stock solution of 5 mg/mL of HKIs in DMSO was made. This stock was diluted to 50 µg/mL in broth in a 96 well plate. Dilutions were made (factor 2) directly in the plate with a multi-channel pipet. Bacteria cultured in suspension overnight were then added to the plate (except negative control) and the plate was incubated for 24 hours. After 24 hours the OD600 was measured using a spectrophotometer. A positive control (with bacteria, without HKI) was also measured on each plate.
Bacterial strains used in this study for antibacterial susceptibility testing (Table S2) were propagated using standard microbiological procedures. Minimal inhibitory concentrations (MICs) were determined following a standard double-dilution method (42), 73. […] For M. marinum, MICs were determined in Middlebrook 7H9 broth (Difco) and MICs were determined after 3 days incubation at 30 °C.
as §3

[9] = read-out: IC50 NRK-52E (50 mg/mL stock)
[10] = HEK293, read-out: IC50 HEK293 (5 mg/mL stock)
[11] = HEK293, read-out: IC50 HEK293 (50 mg/mL stock)

SMILES | MIC E. coli JW5503 [1] [µg/mL] | IC50 NRK-52E (50 mg/mL stock) ([2]; 50 mg/mL stock) | IC50 HEK293 (5 mg/mL stock) ([3]; HEK293, 5 mg/mL stock) | MIC M. marinum [4] [µg/mL] | MIC P. multocida [5] [µg/mL] | MIC E. faecium Van A [6] [µg/mL] | MIC S. suis [7] [µg/mL] | MIC S. aureus Newman [8] [µg/mL] | IC50 ([2]; read-out: IC50 NRK-52E (50 mg/mL stock), 50 mg/mL stock) [µg/mL] | IC50 ([3]; read-out: IC50 HEK293 (50 mg/mL stock), HEK293, 50 mg/mL stock) [µg/mL] | IC50 [2, 9] [µg/mL] | IC50 [3, 10] [µg/mL] | IC50 [3, 11] [µg/mL]
Oc1cc(OCc2ccc(Br)cc2)ccc1-c1n[nH]c(C(F)(F)F)c1-c1ccc(Cl)cc1 [Sep-13, 5-(4-bromobenzyl)oxy-2-[4-(4-chlorophenyl)-5-(trifluoromethyl)-1∼{H}-pyrazol-3-yl]phenol] | > 50 | 10.89 | 16.51 | 25 (≈ 47.7 µM) | > 50 | 12.5 (≈ 23.9 µM) | 6.25 (≈ 11.9 µM) | 1.56 (≈ 2.98 µM) | – | – | – | – | –
NNC(=O)COc1ccc(-c2n[nH]c(C(F)(F)F)c2-c2ccc(Cl)cc2)c(O)c1 [Sep-24, 2-[4-[4-(4-chlorophenyl)-5-(trifluoromethyl)-1∼{H}-pyrazol-3-yl]-3-hydroxy-phenoxy]acetohydr azide] | – | – | – | > 50 | > 50 | 50 (≈ 117 µM) | > 50 | 50 (≈ 117 µM) | 104 (≈ 243 µM) | 119 (≈ 279 µM) | – | – | –
COc1ccc(-c2n[nH]c(C(F)(F)F)c2-c2ccccc2OC)c(O)c1 [May-19, 5-methoxy-2-[4-(2-methoxyphenyl)-5-(trifluoromethyl)-1∼{H}-pyrazol-3-yl]phenol] | – | – | – | 50 (≈ 137 µM) | 50 (≈ 137 µM) | > 50 | 25 (≈ 68.6 µM) | 25 (≈ 68.6 µM) | – | – | 24.1 (≈ 66.1 µM) | 5.74 (≈ 15.8 µM) | –
COc1ccc(-c2n[nH]c(C(F)(F)F)c2-c2ccccc2)c(O)c1 [May-21, 5-methoxy-2-[4-phenyl-5-(trifluoromethyl)-1∼{H}-pyrazol-3-yl]phenol] | 3.13 (≈ 9.36 µM) | – | – | > 50 | 50 (≈ 150 µM) | – | 25 (≈ 74.8 µM) | 12.5 (≈ 37.4 µM) | – | – | ~15.6 (≈ 46.8 µM) | 6.47 (≈ 19.4 µM) | 46.9 (≈ 140 µM)
Oc1ccc(-c2onc(C(F)(F)F)c2-c2ccc(Cl)cc2)c(O)c1 [AND-2, 4-[4-(4-chlorophenyl)-3-(trifluoromethyl)isoxazol-5-yl]resorcinol] | – | – | – | > 50 | 25 (≈ 70.3 µM) | 6.25 (≈ 17.6 µM) | 12.5 (≈ 35.1 µM) | 3.13 (≈ 8.8 µM) | – | – | ~3.88 (≈ 10.9 µM) | 6.97 (≈ 19.6 µM) | 36.7 (≈ 103 µM)
CCOc1ccc(-c2n[nH]c(C)c2-c2ccc(Cl)cc2)c(O)c1 [Sep-22, 2-[4-(4-chlorophenyl)--5-methyl-1∼{H}-pyrazol-3-yl]-5-ethoxy-phenol] | – | – | – | > 50 | > 50 | > 50 | 50 (≈ 152 µM) | 50 (≈ 152 µM) | – | – | ~1480 (≈ 4510 µM) | – | 23.6 (≈ 71.8 µM)
COc1ccc(-c2c(C(F)(F)F)n[nH]c2-c2ccc(OCc3ccccc3)cc2O)cc1 [May-26, 5-benzoxy-2-[4-(4-methoxyphenyl)-5-(trifluoromethyl)-1∼{H}-pyrazol-3-yl]phenol] | 3.13 (≈ 7.11 µM) | – | – | 12.5 (≈ 28.4 µM) | > 50 | – | 3.13 (≈ 7.11 µM) | 1.56 (≈ 3.54 µM) | – | – | 9.64 (≈ 21.9 µM) | – | 4.8 (≈ 10.9 µM)
COc1ccc(-c2n[nH]cc2-c2ccc(Cl)cc2)c(O)c1 [Sep-23, 2-[4-(4-chlorophenyl)-1∼{H}-pyrazol-5-yl]-5-methoxy-phenol] | – | – | – | > 50 | > 50 | > 50 | > 50 | 25 (≈ 83.1 µM) | – | – | 259 (≈ 861 µM) | 9.14 (≈ 30.4 µM) | 39.7 (≈ 132 µM)
CCOc1ccc(-c2[nH]nc(C(F)(F)F)c2-c2ccc(OC)c(OC)c2)c(O)c1 [May-3, 2-[4-(3,4-dimethoxyphenyl)-5-(trifluoromethyl)-1∼{H}-pyrazol-3-yl]-5-ethoxy-phenol] | – | – | – | 25 (≈ 61.2 µM) | > 50 | – | 12.5 (≈ 30.6 µM) | 12.5 (≈ 30.6 µM) | – | – | ~0.8 (≈ 1.96 µM) | 6.69 (≈ 16.4 µM) | –
CCOc1ccc(-c2n[nH]c(C(F)(F)F)c2-c2ccccc2)c(O)c1 [May-22, 5-ethoxy-2-[4-phenyl-5-(trifluoromethyl)-1∼{H}-pyrazol-3-yl]phenol] | – | – | – | > 50 | 50 (≈ 144 µM) | > 50 | 6.25 (≈ 17.9 µM) | 3.13 (≈ 8.99 µM) | – | – | 19.2 (≈ 55 µM) | 5.8 (≈ 16.7 µM) | 19.9 (≈ 57.1 µM)
NNC(=O)COc1ccc(-c2[nH]nc(C(F)(F)F)c2-c2ccccc2)c(O)c1 [May-25, 2-[3-hydroxy-4-[4-phenyl-5-(trifluoromethyl)-1∼{H}-pyrazol-3-yl]phenoxy]acetohy drazide] | 6.25 (≈ 15.9 µM) | – | – | – | 50 (≈ 127 µM) | 25 (≈ 63.7 µM) | – | 12.5 (≈ 31.9 µM) | – | – | 106 (≈ 271 µM) | 27.6 (≈ 70.3 µM) | –
CCOc1ccc(-c2n[nH]c(C(F)(F)F)c2-c2ccc(OC)cc2)c(O)c1 [May-7, 5-ethoxy-2-[4-(4-methoxyphenyl)-5-(trifluoromethyl)-1∼{H}-pyrazol-3-yl]phenol] | – | – | – | 50 (≈ 132 µM) | > 50 | – | 6.25 (≈ 16.5 µM) | 6.25 (≈ 16.5 µM) | – | – | ~31.1 (≈ 82.3 µM) | 5.68 (≈ 15 µM) | 231 (≈ 610 µM)
COc1ccc(-c2n[nH]c(C(F)(F)F)c2-c2ccc(Cl)cc2)c(O)c1 [May-16, 2-[4-(4-chlorophenyl)-5-(trifluoromethyl)-1∼{H}-pyrazol-3-yl]-5-methoxy-phenol] | 1.56 (≈ 4.23 µM) | – | – | 50 (≈ 136 µM) | 25 (≈ 67.8 µM) | – | 3.13 (≈ 8.49 µM) | 3.13 (≈ 8.49 µM) | – | – | – | 3.59 (≈ 9.74 µM) | –
